Assay results taken from the supplement of paper PMC10307832.

Assays:
Test in all cases: relative viability (nuclei count vs DMSO), 5 days (fraction); higher = more cells survive
AZ23 = compound: CC(C)Oc1cc(Nc2nc(N[C@@H](C)c3ccc(F)cn3)ncc2Cl)n[nH]1 [AZ23]
In short: (§1)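 For viability, nuclei in each treated well were divided by nuclei in vehicle wells and the median across plates was taken. Lung cancer cell lines in 1536-well plates were pinned with five library-drug doses (not always all listed) spaced by √10, cultured 5 days without medium change, and imaged at 4× after Hoechst staining, with plates passing only at control CV below 25% and at least one doubling.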

HG-5-88-01 = compound: CC(C)S(=O)(=O)C1=CC=CC=C1NC2=NC(=NC(=C2Cl)N)NC3=C(C=C(C=C3)N4CCC(CC4)C(=O)N)OC [HG-5-88-01]
In short: as §1

Embelin = compound: CCCCCCCCCCCC1=C(O)C(=O)C=C(O)C1=O [Embelin]
In short: as §1

[1] = compound: C[C@@H]1CN(CC(=O)Nc2ccc3c(c2)Cc2cccc(-c4cc(=O)cc(N5CCOCC5)o4)c2S3)C[C@H](C)O1
In short: as §1

Vatalanib = compound: Clc1ccc(Nc2nnc(Cc3ccncc3)c3ccccc23)cc1 [Vatalanib]
In short: as §1

Cell Line | relative viability (AZ23; 0.01 µM) | relative viability (AZ23; 0.03162 µM) | relative viability (AZ23; 0.3162 µM) | relative viability (HG-5-88-01; 0.04 µM) | relative viability (HG-5-88-01; 0.1265 µM) | relative viability (HG-5-88-01; 0.4 µM) | relative viability (HG-5-88-01; 1.265 µM) | relative viability (HG-5-88-01; 4 µM) | relative viability (Embelin; 0.08 µM) | relative viability (Embelin; 0.8 µM) | relative viability (Embelin; 2.53 µM) | relative viability (Embelin; 8 µM) | relative viability ([1]; 0.04 µM) | relative viability ([1]; 0.1265 µM) | relative viability ([1]; 0.4 µM) | relative viability ([1]; 4 µM) | relative viability (Vatalanib; 0.04 µM) | relative viability (Vatalanib; 0.1265 µM) | relative viability (Vatalanib; 0.4 µM) | relative viability (Vatalanib; 1.265 µM) | relative viability (Vatalanib; 4 µM)
NCI-H358 | 1.03 | 1.03 | 1.04 | 0.88 | 0.879 | 0.794 | 0.34 | 0.311 | 1.02 | 0.982 | 1.09 | 1.15 | 0.989 | 0.905 | 0.958 | 0.673 | 1.02 | 0.911 | 0.986 | 0.962 | 0.955
NCI-H441 | 1.43 | 1.01 | 1.06 | 1.09 | 1.33 | 1.24 | 0.925 | 0.819 | 1.05 | 1.19 | 1.45 | 1.02 | 1.2 | 0.787 | 1.04 | 0.948 | 1.16 | 0.922 | 1.08 | 1.08 | 0.933
NCI-H460 | 1.03 | 1.08 | 1.07 | 1 | 0.953 | 0.954 | 0.99 | 1.03 | 1.01 | 1.03 | 1.04 | 0.997 | 0.934 | 0.963 | 1.06 | 0.938 | 1.03 | 0.924 | 1.01 | 0.947 | 0.984
NCI-H520 | 0.915 | 1.11 | 0.92 | 0.994 | 1.05 | 0.959 | 1 | 1.02 | 1.07 | 1.1 | 1.11 | 0.931 | 0.797 | 1.05 | 0.901 | 0.94 | 1.07 | 0.92 | 1.08 | 0.881 | 0.841
NCI-H522 | 1.04 | 1.12 | 1.09 | 1.04 | 0.903 | 0.849 | 0.804 | 0.706 | 1.01 | 1.13 | 1.15 | 0.821 | 0.77 | 1 | 1.11 | 0.864 | 1.1 | 0.767 | 0.966 | 0.917 | 0.876
NCI-H596 | 1.07 | 0.915 | 0.962 | 1.01 | 0.933 | 1.04 | 0.994 | 0.576 | 0.981 | 0.986 | 1.16 | 0.732 | 0.947 | 0.982 | 0.783 | 0.885 | 0.97 | 1.15 | 1.06 | 0.954 | 0.912
NCI-H647 | 0.949 | 1.04 | 1.22 | 1 | 0.97 | 0.832 | 0.971 | 1.1 | 0.985 | 1.25 | 1.08 | 0.914 | 0.882 | 0.976 | 1 | 0.734 | 1 | 0.943 | 0.933 | 0.916 | 0.85
NCI-H650 | 0.867 | 1.09 | 0.921 | 1.04 | 0.993 | 0.829 | 0.902 | 0.576 | 0.821 | 1.09 | 0.909 | 0.739 | 0.944 | 0.95 | 1.07 | 0.722 | 1.01 | 0.885 |  | 0.779 | 0.847
